Experiments:
Format in all cases: in vivo
human [1] = assay: residual muscle pain after a very hard workout
Excerpt: I ran five miles with four 150M build-ups and threw a 6 Kg shot-put for the first time. This workout was followed by a session of weightlifting. Before I began treatment with the substance P analog I would take Advil™ at least twice on the day of the work out to prevent muscle pain.

human [2] = assay: visual accommodation (adjustment time between long and near vision)
human [3] = assay: running speed (150M build-ups, timed 200M run)
Excerpt: After taking the analog, I “felt” much faster in my 150M build-ups than previously.

human [4] = assay: sleep pattern
Procedure: I have 6 hours sleep on a regular basis. Approximately a week ago, after taking the analog daily for 2 weeks, I was getting 5 hours sleep.

radiation-exposed mice = assay: hair regrowth in radiation-exposed mice given the substance P analog
human [5] = assay: short-term memory; conditions: since beginning to apply the analog; names and telephone numbers
Excerpt: I can remember people's names and telephone numbers more readily.

scalp hair of a human = assay: hair styling gel with the analog applied daily to the scalp, hair colour; conditions: 0.001 mg/ml in hair styling gel, approximately 2 ml daily to scalp, after a few months; self-observation
Procedure: [Sar9,Met (02)11 ]-substance P was formulated in a hair styling gel at a concentration of 0.001 mg/ml and approximately 2 ml were applied daily to my scalp. […] I estimate my head of hair to be about 40% darker. This observation is consistent with results observed on radiation-exposed mice that had been given the substance P analog.

For [Sar9,Met (02)11 ]-substance P, the “reduction in residual muscle pain” value (human [1]; after a very hard workout, self-observation) was “very large reduction”, the “tightness or soreness in right arm/shoulder from throwing the shot” value (human [1]; after taking the analog) was “nor did I experience tightness or soreness” and the “muscle pain after the hard workout” value (human [1]; five mile run, four 150M build-ups, 6 Kg shot-put, weightlifting, after taking the analog) was “no muscle pain”. The “adjustment time between long and near vision after 97 days” value (human [2]; after 97 days of administration) was “little adjustment time”, the “adjustment time between long and near vision” value (human [2]; during administration) was “shorter and continues to diminish” and the “perceived speed in 150M build-ups” value (human [3]; after taking the analog, versus previously) was “much faster”. For the same substance, the “time in a 200M run” value (human [3]; timed run) was “significantly improved”, the “quality of sleep, later” value (human [4]; about a week later (now)) was “the vivid dreams and less waking up continue” and the “hours of sleep per night, later” value (human [4]; about a week later (now), reverted) was “six”. For the same substance, the quality of sleep (human [4]; after taking the analog daily for 2 weeks) was “deeper with more vivid dreams and less “waking up.””, the hours of sleep (human [4]; after taking the analog daily for 2 weeks, regular basis 6 hours) was 5 h and the “regrowth of hair lost upon radiation exposure” value (radiation-exposed mice; radiation-exposed mice given the substance P analog) was “regrew hair that was lost upon radiation exposure”. The “colour of new hair growth” value (radiation-exposed mice; radiation-exposed mice, versus non-exposed area) was “darker than in the non-exposed area”, the memory problems (human [5]) was “less “middle-aged” memory problems” and the “head of hair darker (estimate)” value (scalp hair of a human) was “about 40%”. For the same substance, the “overall color of hair” value (scalp hair of a human) was “becoming more like my original brown color”.

Reference: US20080167248A1, “Anti-Aging Effects Of Substance P” (IMMUNEREGEN BIOSCIENCES, INC., priority 2004, published 2008)
